Test results as given in article PMC6219668 (Oncotarget, 2018).
Where two headings read alike, the source gives them in different places.

Columns and labels:
Pfeiffer = assay: cells; assay type: cell-based; conditions: Homo sapiens, DLBCL, dominant CDK6, read-out: IC50, mean ± SD
MCF-7 [1] = assay: cells; assay type: cell-based; conditions: Homo sapiens, MCF7; MCF-7, ER+ BC, dominant CDK4; read-out: IC50, mean ± SD
JeKo-1 = assay: cells; assay type: cell-based; conditions: Homo sapiens; JeKo-1, MCL, dominant CDK4; read-out: IC50, mean ± SD
SEM cells = assay: cells; assay type: cell-based; conditions: ALL, dominant CDK6, read-out: IC50, mean ± SD
SNU-387 = assay: cells; assay type: cell-based; conditions: Homo sapiens, SNU-387, 72 h
HBCx-16 = assay type: in vivo; conditions: HBCx-16, Breast, HER2High, Rb present; 125 mg/kg bid × 21
TE-10 = assay: cells; assay type: cell-based; conditions: Homo sapiens, TE-10, 72 h
Pharmacokinetics in mice = assay type: in vivo; conditions: 75 mg/kg once daily, data not shown
NCI-H23 = assay: cells; assay type: cell-based; conditions: Homo sapiens, NCI-H23, 72 h
MGH049 = assay: cells; assay type: cell-based; conditions: MGH049, 72 h
TE-14 = assay: cells; assay type: cell-based; conditions: TE-14, 72 h
Rb phosphorylation = assay: animal or person; assay type: in vivo; conditions: Rattus norvegicus, JeKo-1, read-out: ppRb inhibition, range
NCI-H1792 = assay: cells; assay type: cell-based; conditions: Homo sapiens, NCI-H1792, 72 h
NCI-H3122 = assay: cells; assay type: cell-based; conditions: Homo sapiens, NCI-H3122, 72 h
A-375 = assay: cells; assay type: cell-based; conditions: Homo sapiens, A-375, 72 h
TE-11 = assay: cells; assay type: cell-based; conditions: Homo sapiens, TE-11, 72 h
NB1 = assay: cells; assay type: cell-based; conditions: Homo sapiens, NB1, 72 h
HPAX1317 = assay type: in vivo; conditions: HPAX1317, Pancreatic, Rb present; 250 mg/kg qd
NCI-H3255 = assay: cells; assay type: cell-based; conditions: Homo sapiens, NCI-H3255, 72 h
hs944T [2] = assay: cells; assay type: cell-based; conditions: 72 h
HBRX1600 = assay type: in vivo; conditions: HBRX1600, Breast, TNBC, Rb present; 250 mg/kg qd
NCI-H2228 = assay: cells; assay type: cell-based; conditions: Homo sapiens, NCI-H2228, 72 h
MGH051 [3] = assay: cells; assay type: cell-based; conditions: MGH051, 72 h
SK-MEL-28 = assay: cells; assay type: cell-based; conditions: Homo sapiens, SK-MEL-28, 72 h
PC-14 = assay: cells; assay type: cell-based; conditions: Homo sapiens, PC-14, 72 h
KYSE30 = assay: cells; assay type: cell-based; conditions: Homo sapiens, KYSE-30; KYSE30, 72 h
HBRX1004 = assay type: in vivo; conditions: HBRX1004, Breast, TNBC, Rb present; 250 mg/kg qd
Hs 944.T = assay type: in vivo; conditions: Melanoma
HCOX1290 = assay type: in vivo; conditions: HCOX1290, Colorectal, Rb present; 250 mg/kg qd
HBCx-15 = assay type: in vivo; conditions: HBCx-15, Breast, TNBC, Rb absent; 125 mg/kg bid × 21
SK-MEL-2 = assay: cells; assay type: cell-based; conditions: Homo sapiens, SK-MEL-2, 72 h
KYSE150 = assay: cells; assay type: cell-based; conditions: Homo sapiens, KYSE-150; KYSE150, 72 h
MCF-7 [4] = assay: cells; assay type: cell-based; conditions: Homo sapiens, MCF7; MCF-7, 72 h
NCI-H1975 = assay: cells; assay type: cell-based; conditions: Homo sapiens, NCI-H1975, 72 h
T-47d = assay: cells; assay type: cell-based; conditions: Homo sapiens, T47D, 72 h
SK-MEL-30 = assay: cells; assay type: cell-based; conditions: Homo sapiens, SK-MEL-30, 72 h
HBCx-12 = assay type: in vivo; conditions: HBCx-12, Breast, TNBC, Rb present; 125 mg/kg bid × 21
JeKo-1 xenograft = assay type: in vivo; conditions: for tumor response: qd, po
MELJUSO = assay: cells; assay type: cell-based; conditions: Homo sapiens, MEL-JUSO, 72 h
hs944T [5] = assay: cells; assay type: cell-based; conditions: 72 h; remark: listed apart in the source
MGH051 [6] = assay: cells; assay type: cell-based; conditions: MGH051, 72 h; remark: listed apart in the source

## CC(=O)c1c(C)c2cnc(Nc3ccc(N4CCNCC4)cn3)nc2n(C2CCCC2)c1=O [Palbociclib, reference compound]
Pfeiffer
  IC50: 89 ± 32 µM
MCF-7 [1]
  IC50: 30 ± 18 µM
JeKo-1
  IC50: 72 ± 33 µM
SEM cells
  IC50: 87 ± 28 µM

## CN(C)C(=O)c1cc2cnc(Nc3ccc(N4CCNCC4)cn3)nc2n1C1CCCC1 [Ribociclib, 7-cyclopentyl-2-(5-piperazin-1-yl-pyridin-2-ylamino)-7H-pyrrolo[2,3-d]pyrimidine-6-carboxylic acid dimethylamide]
SNU-387
  IC50: > 10 µM
HBCx-16
  T/C: 71
TE-10
  IC50: 1.01 µM
Pharmacokinetics in mice
  area under the concentration-time curve: ~12,500 ng/mL × h
  maximum serum concentration: ~2700 ng/mL
NCI-H23
  IC50: > 10 µM
MGH049
  IC50: > 10 µM
TE-14
  IC50: > 10 µM
Rb phosphorylation
  inhibition at 75 mg/kg: 75 to 90%
  inhibition at 150 mg/kg: 97 to 100%
NCI-H1792
  IC50: > 10 µM
NCI-H3122
  IC50: 2 µM
A-375
  IC50: 2.68 µM
TE-11
  IC50: > 10 µM
NB1
  IC50: 0.37 µM
HPAX1317
  T/C: 32
NCI-H3255
  IC50: > 10 µM
hs944T [2]
  IC50: 1.62 µM
HBRX1600
  T/C: 28
NCI-H2228
  IC50: > 10 µM
MGH051 [3]
  IC50: > 10 µM
SK-MEL-28
  IC50: 0.98 µM
PC-14
  IC50: > 10 µM
KYSE30
  IC50: 4.06 µM
HBRX1004
  T/C: 10
Hs 944.T; 150 mg/kg qd
  T/C: 36
Hs 944.T; 250 mg/kg qd
  T/C: 19
HCOX1290
  T/C: 22
HBCx-15
  T/C: 108
SK-MEL-2
  IC50: 4.81 µM
KYSE150
  IC50: 6.7 µM
MCF-7 [4]
  IC50: 0.18 µM
NCI-H1975
  IC50: > 10 µM
T-47d
  IC50: 0.25 µM
SK-MEL-30
  IC50: > 10 µM
HBCx-12
  T/C: 33
JeKo-1 xenograft; 75 mg/kg
  tumor response: complete tumor regression
JeKo-1 xenograft; 150 mg/kg
  tumor response: complete tumor regression
JeKo-1 xenograft; rat, in vivo
  tumor growth inhibition: 56%
MELJUSO
  IC50: > 10 µM
hs944T [5]
  IC50: > 10 µM
MGH051 [6]
  IC50: 0.28 µM
